Consider 2 molecules from patent US12031137B2, “Compositions comprising SASP modulators and senescence attenuators and uses thereof for modulating cellular senescence” (RSEM, LIMITED PARTNERSHIP, priority 2016, dated 2024).

In series [1] the test system is mouse model of oxygen-induced retinopathy (OIR). As to the kind of experiment: SA-β-gal staining of retinas in oxygen-induced retinopathy (OIR) after intravitreal injection. In kind it is in vivo. The settings on record: single intravitreal injection at P12, vs vehicle. The text has this:
(§1) O2-induced retinopathy. Mouse pups from different strains (C57Bl/6 WT, LyzM-Cre, LysM-Cre/IRE1^fl/fl, LysM-Cre/IRE1^+/+, IRE1^fl/fl and LysM-Cre/ROSA26EYFP^fl/fl), and their fostering mothers (CD1, Charles River) were exposed to 75% 02 from postnatal day 7 (P7) to day 12 and returned to room air. This model serves as a proxy to human ocular neovascular diseases such as ROP and diabetic retinopathy characterized by a late phase of destructive pathological angiogenesis (72, 73). Upon return to room air, hypoxia-driven neovascularization (NV) develops from P14 onwards (27). We enucleated eyes at different time points and dissected the retinas for mRNA, protein assays or flatmounting.
(§2) Senescence-associated β-galactosidase (SA-β-gal) assay. Senescence-associated β-galactosidase assays were carried out as described previously (57, 75)
Quantification of SA-β-gal in vivo. Senescence-associated β-galactosidase staining in flatmount retinas or sagittal eye sections were analyzed using Image J software as described in FIG. 14.
(§3) Intravitreal injections. P2, P10 or P12 C57BL/6 pups were anesthetized with 3.0% isoflurane and injected in the vitreous chamber with 0.5 μL of lentivirus (see “Lentivirus production”), recombinant SEMA3A (100 ng/μL), metformin (10 μg/μL) or Aflibercept (10 μg/uL) using a 10-μL Hamilton syringe fitted with a […] glass capillary tip. Approximately 254±11.0 ng/μL of lentivirus Sh_GFP and 323.3±15.3 ng/μL containing Sh_Sema3a, Lv.Cre (15.0 ng/mL), Lv.GFP (15.0 ng/mL) was injected. Virus titers were assessed with the p24 ELISA kit (ZeptoMetrix). The titers of the lentiviruses used were (in ng p24) LV.Sh_RNA IRE1α (8.52 ng/mL), and LV.Sh_RNA.GFP (8.47 ng/mL).

For series [2] the test system is unchanged. Kind of series: Avascular area and pre-retinal neovascularization in OIR flatmount retinas. In kind it is in vivo.
Series [3] shares this test system. Kind of series: Immunoblot and RT-qPCR of OIR retinas after intravitreal injection. In kind it is in vivo.
From the text: as §1
(§4) Semi-quantitative and Real-time PCR analysis. We isolated RNA using the GenElute™ Mammalian Total RNA Miniprep Kit (Sigma) and performed a digestion with DNase I to prevent amplification of genomic DNA. We reversed transcribed the RNA using M-MLV reverse transcriptase and analyzed gene expression using SybrGreen™ in an ABI Biosystems Real-Time PCR machine. β-actin was used as a reference gene. […] We investigated the splicing of XBP-1 by incubating the XBP-1 semi-quantitative PCR product with 0.4 U/μL of PstI enzyme for 5 hrs at 37° C. followed by separation on 2.5% agarose gel.
as §3
(§5) Western blotting. We enucleated eyes at varying time points and rapidly dissected and homogenized retinas for assessment of retinal protein levels. Protein concentration from retinal homogenate and cell lysates were assessed by BCA assay (Sigma), and then 30 μg of protein analyzed for each condition by standard SDS-PAGE technique.
Background: In western blotting, separated proteins are transferred to a membrane and probed.

Series [4] shares this test system. Kind of series: TUNEL staining of OIR retinas. The settings on record: P14 OIR, intravitreal, vs vehicle-treated retinas. The class given is in vivo.
From the text: as §1, §3

A short description of series [5]: Mouse weight gain on systemic administration of metformin. In kind it is in vivo.
The next series has as its system retina. As to the kind of experiment: Intravitreal injection of recombinant SEMA3A in mouse pups, senescence markers. The class given is in vivo. The settings on record: retina harvested at P5. The text has this:
FIG. 3A: Western blot analysis of SEMA3A protein expression level during OIR compared to normoxic controls at P10, P14, P17 and P21. β-actin is used as a loading control. FIG. 3B: Immunoblot analysis of SEMA3A protein levels during Ras-induced senescence in Mouse Embryonic Fibroblasts (MEFs). Cell lysates from MEFs retrovirally transduced with H-RasV12 oncogene or control empty vector harvested 14 days post-selection. FIG. 3C: SEMA3A transcript levels in human normal diploid fibroblasts (IMR90) retrovirally transduced with empty vector, MEK1 alone or MEK and human papillomavirus oncoproteins E6 and E7. […] FIG. 3I: HRMEC, retinal neurons (661W) and J774 (macrophages-like cells) stimulated with recombinant SEMA3A (100 ng/ml) or vehicle (CT) for 7 days, stained for SA-β-gal and quantification in FIG. 3J. […] Senescent cells were stained with SA-β-gal (right) and the level of secreted SEMA3A (S3A) protein in CM was evaluated by immunoblot (left). […] Senescence was evaluated after 7 days of treatment. FIG. 3M: Quantification of percentage of SA-β-gal positive cells treated as in (J). […]
Intravitreal injections. […] Virus titers were assessed with the p24 ELISA kit (ZeptoMetrix). […]
Western blotting. […] Protein concentration from retinal homogenate and cell lysates were assessed by BCA assay (Sigma), and then 30 μg of protein analyzed for each condition by standard SDS-PAGE technique.

In series [6] the test system is Human retinal microvascular endothelial cells (HRMECs). As to the kind of experiment: SEMA3A exposure of HRMECs (cell cycle FACS, ECIS, SA-β-gal). In kind it is cell-based. The procedure: Flow Cytometry Analysis. Human retinal microvascular endothelial cells (HRMEC) cell cycle analysis (P1 biolegend) were performed according to the manufacturer's instructions and as previously reported (43). Briefly, HRMEC (1×10^6) were seeded in 6-well plates and incubated for 7 days with SEMA3A, 100 and 500 ng/ml. The samples were analyzed by flow cytometry. FACS was performed on a LSRII (BD Biosciences) device and data were analysed using FlowJo software (version 7.6.5).
Electric Cell-substrate Impedance Sensing (ECIS) Proliferation assay. Real-time analysis of trans-endothelial electric resistance was performed by plating 5000 HRMECs/ml were seeded onto 8W10E+ standard 8-well arrays (Applied BioPhysics, NY). Cells were allowed to grow leading to a capacitance of less than 10 nF. Cells were starved for 5 Hours with endothelial basal media (EBM-2, Lonza) and then treated with 100 ng/ml SEMA3A or vehicle (EBM-2) for 120 h and impedance was measured using an ECIS Zθ impedance instrument (Applied BioPhysics, NY). Measurements were taken for 120 h post treatment.
as §2
(§6) Preparation of conditioned media (CM). Human retinal microvascular endothelial cells (HRMECs), retinal neuron 661W photoreceptor cells and Mouse macrophages (J774A.1 cell line) were incubated for 7 days with recombinant SEMA3A ([…]), H2O2 (150 μM for 2 h) 48 h after transfection or not as indicated in each experiment. Supernatants were centrifuged and filtered and then frozen for subsequent use. For Western Blot on CM was concentrated using ultra centrifugal amicon filter unit from Millipore.

For series [7], the system named is J774 macrophage/monocyte cells. As to the kind of experiment: SEMA3A exposure of J774 macrophage/monocyte cells (SA-β-gal, immunoblot, RT-qPCR, γH2AX). In kind it is cell-based, mouse. The procedure: as §4
For Protein localization, flatmounted retinas were incubated with different antibodies as indicated. For in vitro IF, cultured cells were plated on 0.1% gelatin-coated coverslips and serum-starved overnight and stimulated for 7 days with SEMA3A (100 ng/ml). Cells were washed briefly with cold PBS and fixed for 20 minutes in PBS containing 3.5% paraformaldehyde. Cells were rinsed with PBS and permeabilized with 0.3% Triton in PBS for 5 minutes. Fixed cells were blocked with 1% BSA and then incubated for 1 hour with primary antibodies in 0.1% BSA in PBS. Bound primary antibodies were visualized after 1 hour of incubation using Alexa Fluor secondary antibody. Coverslips were mounted using Fluoromount (Sigma-Aldrich) and analyzed by confocal microscope (Olympus confocal FV1000). Samples were viewed with a ×63/1.4 NA oil or ×30 objective. Images were assembled using Photoshop CS4 (Adobe Systems). For all antibodies used for immunohistochemistry, see Table 8.
as §2, §6, §5

A further series has as its system retinal neurons (661W). Kind of series: SEMA3A exposure of 661W retinal neuron cell line (SA-β-gal). The class given is cell-based. The settings on record: 100 ng/ml, 7 days. The procedure: as §2
Preparation of conditioned media (CM). Human retinal microvascular endothelial cells (HRMECs), retinal neuron 661W photoreceptor cells and Mouse macrophages ([…]), H2O2 (150 μM for 2 h) 48 h after transfection or not as indicated in each experiment. Supernatants were centrifuged and filtered and then frozen for subsequent use. For Western Blot on CM was concentrated using ultra centrifugal amicon filter unit from Millipore.

[8] abbreviates: intravitreal injection at P12, P14 OIR retinas.
Setting [9] is: HRMECs, 7 days, 100 and 500 ng/ml, FACS.

Turning to `CN(C)C(=N)NC(=N)N` [metformin, N,N-Dimethylimidodicarbonimidic diamide], in series [1], the “SA-β-gal staining at P14 OIR” value is recorded as “significant decrease” and the “SA-β-gal staining at P17 OIR (cellular senescence)” value is on record as “significant decrease”. Moreover, the “benefits on pathological retinal angiogenesis” value in [2] (administered via systemic paths) was “did not show any benefits”. For the same molecule, the “enhancement of vascular regeneration” value in series [2] (intravitreal injection at P12, assessed at P17 OIR) is listed as “more than 2 fold”. The “pathological neovascularization at P17 OIR” value in series [2] (intravitreal injection at P12, vs vehicle) was “by half”. In addition, in series [3] (setting [8]), the “Components of the VEGF signaling pathway (Vegf-a, Vegf-c, Vegfr-1, Vegfr-2 RT-qPCR)” value was “not affected”; the “IL6, Cdkn1a, Cdkn2a and Sema3A by RT-qPCR” value is reported as “significant decrease”. In series [3] (single intravitreal injection at P12, OIR P14 and P17), the “NF-κB and IRE1α activation in retinas (immunoblot)” value is listed as “attenuated”. Besides, in series [4], the “apoptosis in cells of the GCL (TUNEL)” value is on record as “without aggravating apoptosis” and the “number of apoptotic cells in the INL layer (TUNEL)” value was “lowered”. For the same molecule, the mouse weight gain entry in series [5] was “interfered with mouse weight gain”.

B1: SEMA3A: Recombinant human Semaphorin 3A (from murine myeloma cell line, NS0) (R&D Systems) (protein)
chain: YQNGKNNVPRLKLSYKEMLESNNVITFNGLANSSSYHTFLLDEERSRLYVGAKDHIFSFDLVNIKDFQKIVWPVSYTRRDECKWAGKDILKECANFIKVLKAYNQTHLYACGTGAFHPICTYIEIGHHPEDNIFKLENSHFENGRGKSPYDPKLLTASLLIDGELYSGTAADFMGRDFAIFRTLGHHHPIRTEQHDSRWLNDPKFISAHLISESDNPEDDKVYFFFRENAIDGEHSGKATHARIGQICKNDFGGHRSLVNKWTTFLKARLICSVPGPNGIDTHFDELQDVFLMNFKDPKNPVVYGVFTTSSNIFKGSAVCMYSMSDVRRVFLGPYAHRDGPNYQWVPYQGRVPYPRPGTCPSKTFGGFDSTKDLPDDVITFARSHPAMYNPVFPMNNRPIVIKTDVNYQFTQIVVDRVDAEDGQYDVMFIGTDVGTVLKVVSIPKETWYDLEEVLLEEMTVFREPTAISAMELSTKQQQLYIGSTAGVAQLPLHRCDIYGKACAECCLARDPYCAWDGSACSRYFPTAKRRTRRQDIRNGDPLTHCSDLHHDNHHGHSPEERIIYGVENSSTFLECSPKSQRALVYWQFQRRNEERKEEIRVDDHIIRTDQGLLLRSLQQKDSGNYLCHAVEHGFIQTLLKVTLEVIDTEHLEELLHKDDDGDGSKTKEMSNSMTPSQKVWYRDFMQLINHPNLNTMDEFCEQVWKRDRKQRRQRPGHTPGNSNKWKHLQENKKGRNRRTHEFERAPRSV
modifications: left off: a dimerising Fc or GST
Take B1: in the series with retina, the “SA-β-gal staining of retina sagittal cryosections” value is “marked augmentation”; the “p53, p16INK4a and IRE1α in retina (immunoblot)” value was “marked increase”. Also, the “senescence (SA-β-gal) in HRMECs” value in [6] (100 ng/ml, 7 days) is listed as “induces senescence”. Further, in series [6] (HRMECs, 100 ng/ml), the “normal endothelial cell growth (ECIS)” value is “stunted”. Also, in series [6] (setting [9]), the S phase result was “significantly reducing” and the “cell cycle arrest in G0/G1” value was “increased”. Besides, the “senescence (SA-β-gal) in macrophage-like J774 cells” value in series [7] (100 ng/ml, 7 days) is reported as “induces senescence”. In [7] (J774, 100 ng/mL, 7 days), the “expression of Pai1, Il6, Il1β, TGF-β and Tp53 (RT-qPCR)” value was “drove expression”; the “senescence-associated DNA-damage foci expressing γH2AX” value is given as “promoted”. Moreover, the “IRE1α activation (p-IRE1α S724 immunoblot)” value in series [7] (J774, sustained exposure, 100 ng/mL, 3 or 7 days) is given as “activated”. Moreover, the “senescence (SA-β-gal) in 661W retinal neuron cell line” value with retinal neurons (661W) is “induces senescence”.
